SMILES strings stand for the structures. Counter-ions that a name gives are not always drawn.

In this assay the target is T1, human α2C receptor (Homo sapiens, UniProt P18825).
T1 construct: expressed in transfected cells; host or cells: CHO cells, also recombinantly expressing chimeric G protein Gαqi3 and mitochondrial obelin (mtOb)
T1 sequence (P18825 1-462): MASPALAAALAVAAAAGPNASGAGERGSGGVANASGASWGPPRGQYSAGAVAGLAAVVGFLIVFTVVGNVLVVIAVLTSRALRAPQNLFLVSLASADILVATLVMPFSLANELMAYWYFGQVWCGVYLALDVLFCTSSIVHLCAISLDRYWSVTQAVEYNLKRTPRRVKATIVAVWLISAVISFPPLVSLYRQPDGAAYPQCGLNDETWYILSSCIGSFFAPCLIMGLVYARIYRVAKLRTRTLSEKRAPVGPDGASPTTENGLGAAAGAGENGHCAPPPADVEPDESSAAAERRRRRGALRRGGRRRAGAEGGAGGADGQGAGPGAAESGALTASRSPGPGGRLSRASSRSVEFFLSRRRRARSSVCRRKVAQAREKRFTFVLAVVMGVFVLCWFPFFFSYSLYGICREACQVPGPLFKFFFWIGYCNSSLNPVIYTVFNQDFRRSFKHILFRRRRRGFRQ
As to the kind of experiment: Antagonism against the adrenoreceptor α2C (luminescence, recombinant CHO cell line). Format: cell-based. The following applies: antagonism against adrenoreceptor α2C; noradrenaline 20 nM; tested up to 10 μM; read-out: IC50. The method, then:
Antagonism against the adrenoreceptor α1A was tested using a recombinant human α1A receptor CHO cell line which additionally also recombinantly expresses mtAeq (mitochondrial aequorin). Antagonism against the adrenoreceptor α2A was tested using a recombinant human α2A-Gα16 receptor fusion protein CHO cell line (PerkinElmer Life Sciences) which additionally also recombinantly expresses mtAeq. Antagonism against the adrenoreceptor α2B was tested using a recombinant human α2B receptor CHO cell line (PerkinElmer Life Sciences) which additionally also recombinantly expresses mtAeq. Antagonism against the adrenoreceptor α2C was tested using a recombinant human α2C receptor CHO cell line which additionally also recombinantly expresses a chimaric G protein (Gαqi3) and mtOb (mitochondrial obelin).
The cells were cultivated at 37° C. and 5% CO2 in Dulbecco's modified Eagle's Medium/NUT mix F12 with L-glutamine which additionally contains 10% (v/v) inactivated foetal calf serum, 1 mM sodium pyruvate, 0.9 mM sodium bicarbonate, 50 U/ml penicillin, 50 μg/ml streptomycin, 2.5 μg/ml amphotericin B and 1 mg/ml Geneticin. The cells were passaged with enzyme-free Hank's-based cell dissociation buffer. All cell culture reagents used are from Invitrogen (Carlsbad, USA).
Luminescence measurements were carried out on white 384-well microtitre plates. 2000 cells/well were plated in a volume of 25 μl and cultivated for one day at 30° C. and 5% CO2 in cell culture medium with coelenterazine (α2A and α2B: 5 μg/ml; α1a/c and α2C: 2.5 μg/ml). Serial dilutions of the test substances (10 μl) were added to the cells. After 5 minutes, noradrenalinee was added to the cells (35 μl; final concentrations: 20 nM (α1a/c and α2C) or 200 nM (α2A and α2B)), and the emitted light was measured for 50 seconds using a CCD (charge-coupled device) camera (Hamamatsu Corporation, Shizuoka, Japan) in a light-tight box. The test substances were tested up to a maximum concentration of 10 μM. The IC50 values were calculated from the appropriate dose-response curves.
Regarding `C[C@@H]1CCCN(C2CCN(C(=O)c3ccc(C(=O)NCc4cc(C(F)(F)F)c(Cl)cn4)cc3)CC2)C1` [Example 92, N-{[5-Chloro-4-(trifluoromethyl)pyridin-2-yl]methyl}-4-{[(3R)-3-methyl-1,4′-bipiperidin-1′-yl]carbonyl}benzamide], the IC50 worked out at 160 nM.
As for `Cc1cc(C)n(Cc2ccc(C(=O)N3CCC(N4CCCC(C)C4)CC3)cc2)n1` (centres unmarked) [Example 11, {4-[(3,5-Dimethyl-1H-pyrazol-1-yl)methyl]phenyl}(3-methyl-1,4′-bipiperidin-1′-yl)methanone], the figure is 167 nM.
To `COC(=O)c1ccc(C(=O)N2CCC(N3CCCC(C)C3)CC2)cc1` (centres unmarked) [Example 22, Methyl 4-[(3-methyl-1,4′-bipiperidin-1′-yl)carbonyl]benzoate] belongs 940 nM; to `COCC(C)NC(=O)c1ccc(C(=O)N2CCC(N3CCCC(C)C3)CC2)cc1` (centres unmarked) [Example 55, N-(1-methoxypropan-2-yl)-4-[(3-methyl-1,4′-bipiperidin-1′-yl)carbonyl]benzamide], 330 nM.
To `CC(C)(O)c1ccc(C(=O)N2CCC(N3CCCC(C4CC4)C3)CC2)cc1` (centres unmarked) [Example 126, (3-Cyclopropyl-1,4′-bipiperidin-1′-yl)[4-(2-hydroxypropan-2-yl)phenyl]methanone] belongs 12 nM; to `CC(C)(O)c1ccc(C(=O)N2CCC(N3CCCC(COC(F)(F)F)C3)CC2)cc1` (centres unmarked) [Example 110, [4-(2-Hydroxypropan-2-yl)phenyl]{3-[(trifluoromethoxy)methyl]-1,4′-bipiperidin-1′-yl}methanone], 7 nM.
With `CC(C)(O)c1ccc(C(=O)N2CCC(N3CCCC(OC4CC4)C3)CC2)cc1` (centres unmarked) [Example 112, 3-(Cyclopropyloxy)-1,4′-bipiperidin-1′-yl][4-(2-hydroxypropan-2-yl)phenyl]methanone formic acid salt], the IC50 worked out at 358 nM.
To `CC(C)CN(C)C(=O)c1ccc(C(=O)N2CCC(N3CCCC(C)C3)CC2)cc1` (centres unmarked) [Example 48, N-methyl-4-[(3-methyl-1,4′-bipiperidin-1′-yl)carbonyl]-N-(2-methylpropyl) benzamide] belongs 199 nM.
To `Cc1n[nH]c(C2CCCN(C3CCN(C(=O)c4ccc(C(C)(C)C)cc4)CC3)C2)n1` (centres unmarked) [Example 21, 1-[1-(4-tert-Butylbenzoyl)piperidin-4-yl]-3-(3-methyl-1H-1,2,4-triazol-5-yl)piperidine trifluoroacetic acid salt] belongs 49 nM.
For the compound `CC1CCCN(C2CCN(C(=O)c3ccc(C(C)(C)C(=O)NC(C)(C)C)cc3F)CC2)C1` (centres unmarked) [Example 65, N-tert-Butyl-2-{3-fluoro-4-[(3-methyl-1,4′-bipiperidin-1′-yl)carbonyl]phenyl}-2-methylpropanamide], the 50% inhibitory concentration (IC50) was found to be 134 nM.
As for `C[C@@H]1CCCN(C2CCN(C(=O)c3ccc(C(=O)NCc4c(F)cccc4F)cc3)CC2)C1` [Example 88, N-(2,6-Difluorobenzyl)-4-{[(3R)-3-methyl-1,4′-bipiperidin-1′-yl]carbonyl}benzamide trifluoroacetic acid salt], the figure is 11 nM; as for `O=C(c1ccc(C2(O)COC2)cc1)N1CCC(N2CCCC(OCC3CC3)C2)CC1` (centres unmarked) [Example 124, [3-(Cyclopropylmethoxy)-1,4′-bipiperidin-1′-yl][4-(3-hydroxyoxetan-3-yl)phenyl]methanone], 39 nM; as for `CCOC(=O)Cc1ccc(C(=O)N2CCC(N3CCCC(C(=O)OCC)C3)CC2)cc1` (centres unmarked) [Example 34, 3-(Ethoxycarbonyl)-1-{1-[4-(2-ethoxy-2-oxoethyl)benzoyl]piperidin-4-yl}piperidine trifluoroacetic acid salt], 86 nM.
As for `CCOC(=O)C1CCCN(C2CCN(C(=O)c3ccc(C(C)(C)O)cc3)CC2)C1` (centres unmarked) [Example 9, Ethyl 1′-[4-(2-hydroxypropan-2-yl)benzoyl]-1,4′-bipiperidine-3-carboxylate], the figure is 44 nM.

Values taken from patent US20160318866A1, “SUBSTITUTED BIPIPERIDINYL DERIVATIVES” (Bayer Pharma Aktiengesellschaft, priority 2013, published 2016).
